This is an account of results in patent US20230024283A1, “HERBICIDAL COMPOUNDS” (SYNGENTA CROP PROTECTION AG, priority 2020, published 2023).

Holding throughout (test): Post-emergence herbicidal glasshouse test
Holding throughout (format): in vivo
Holding throughout (conditions): post-emergence spray, 1000 g/ha, evaluated after 13 days, five-point scale

Assay [1] relates to Amaranthus retoflexus (AMARE). Here is the method: (§1) Seeds of a variety of test species are sown in standard soil in pots (Ipomoea hederacea (IPOHE), Abutilon theophrasti (ABUTH), Amaranthus retoflexus (AMARE), Echinochloa crus-galli (ECHCG), Setaria faberi (SETFA)). After 8 days cultivation under controlled conditions in a glasshouse (at 24/16° C., day/night; 14 hours light; 65% humidity), the plants are sprayed with an aqueous spray solution derived from the formulation of the technical active ingredient in acetone / water (50:50) solution containing 0.5% Tween 20 (polyoxyethelyene sorbitan monolaurate, CAS RN 9005-64-5). Compounds are applied at 1000 g/ha unless otherwise stated. The test plants are then grown in a glasshouse under controlled conditions in a glasshouse (at 24/16° C., day/night; 14 hours light; 65% humidity) and watered twice daily. After 13 days the test is evaluated for the percentage damage caused to the plant. The biological activities are shown in the following table on a five-point scale (5=81-100%; 4=61-80%; 3=41-60%; 2=21-40%; 1=0-20%).

Assay [2] deals with Echinochloa crus-galli (ECHCG). The procedure: as §1
Assay [3] relates to Abutilon theophrasti (ABUTH). Here is the method:
as §1

For the next assay, the system named is Setaria faberi (SETFA). The procedure: as §1
Assay [4] has as its system Ipomoea hederacea (IPOHE). The procedure:
as §1

Molecules are shown by their SMILES.

As for `N#Cc1cc(-n2cc(Cl)c(C(F)F)n2)c(O)c(C(F)(F)F)c1` [Compound 1.250], the “percentage damage caused to the plant, AMARE” value in assay [1] is 5 (5=81-100%). For the same compound, the “percentage damage caused to the plant, ECHCG” value in assay [2] was 2 (2=21-40%). Moreover, the “percentage damage caused to the plant, ABUTH” value in assay [3] is listed as 2 (2=21-40%). Also, the “percentage damage caused to the plant, SETFA” value in the assay on Setaria faberi (SETFA) was 2 (2=21-40%). The “percentage damage caused to the plant, IPOHE” value in assay [4] is given as 5 (5=81-100%).

Turning to `N#Cc1cc(-c2csc(C(F)(F)F)n2)c(O)c(C(F)(F)F)c1` [Compound 1.225], the “percentage damage caused to the plant, AMARE” value in assay [1] was 5 (5=81-100%).

For `N#Cc1cccc(-c2cc(C#N)cc(Br)c2O)c1` [Compound 1.053], the “percentage damage caused to the plant, AMARE” value in assay [1] is on record as 5 (5=81-100%). Further, the “percentage damage caused to the plant, ECHCG” value in assay [2] is recorded as 1 (1=0-20%). In addition, the “percentage damage caused to the plant, ABUTH” value in assay [3] is 2 (2=21-40%). Moreover, the “percentage damage caused to the plant, SETFA” value in the assay with Setaria faberi (SETFA) was 1 (1=0-20%). Besides, the “percentage damage caused to the plant, IPOHE” value in assay [4] was 3 (3=41-60%).

As for `N#Cc1cc(Br)c(O)c(-c2cnc3c(c2)OC(F)(F)O3)c1` [Compound 1.036], the “percentage damage caused to the plant, AMARE” value in assay [1] is reported as 5 (5=81-100%). The “percentage damage caused to the plant, ECHCG” value in assay [2] was 3 (3=41-60%). In addition, the “percentage damage caused to the plant, ABUTH” value in assay [3] was 2 (2=21-40%). Further, in the assay with Setaria faberi (SETFA), the “percentage damage caused to the plant, SETFA” value is reported as 4 (4=61-80%). In assay [4], the “percentage damage caused to the plant, IPOHE” value is given as 3 (3=41-60%).

Regarding `N#Cc1cc(Br)c(O)c(-c2cc(F)cc(C(F)(F)F)c2)c1` [Compound 1.027], in assay [1], the “percentage damage caused to the plant, AMARE” value is recorded as 5 (5=81-100%). Moreover, the “percentage damage caused to the plant, ABUTH” value in assay [3] was 4 (4=61-80%). Further, the “percentage damage caused to the plant, SETFA” value in the assay with Setaria faberi (SETFA) is recorded as 4 (4=61-80%). The “percentage damage caused to the plant, IPOHE” value in assay [4] is listed as 3 (3=41-60%).

For the compound `N#Cc1cc(Br)c(O)c(-c2ccc(C(F)(F)F)c(C(F)(F)F)c2)c1` [Compound 1.008], the “percentage damage caused to the plant, AMARE” value in assay [1] is recorded as 5 (5=81-100%). Further, the “percentage damage caused to the plant, ABUTH” value in assay [3] is 2 (2=21-40%). Also, the “percentage damage caused to the plant, SETFA” value with Setaria faberi (SETFA) is listed as 4 (4=61-80%). Also, in assay [4], the “percentage damage caused to the plant, IPOHE” value was 2 (2=21-40%).

Consider `N#Cc1cc(Cl)c(O)c(-n2cc(C(F)(F)F)cn2)c1` [Compound 1.001, 3-chloro-4-hydroxy-5-[4-(trifluoromethyl)pyrazol-1-yl]benzonitrile], for which the “percentage damage caused to the plant, AMARE” value in assay [1] is 4 (4=61-80%). The “percentage damage caused to the plant, ABUTH” value in assay [3] was 5 (5=81-100%). Besides, in the assay on Setaria faberi (SETFA), the “percentage damage caused to the plant, SETFA” value is on record as 4 (4=61-80%). The “percentage damage caused to the plant, IPOHE” value in assay [4] was 1 (1=0-20%).

Turning to `COc1cc(-c2cc(C#N)cc(Br)c2O)cc(C(F)(F)F)n1` [Compound 1.009], the “percentage damage caused to the plant, AMARE” value in assay [1] is recorded as 4 (4=61-80%). Also, the “percentage damage caused to the plant, ABUTH” value in assay [3] was 2 (2=21-40%). Further, the “percentage damage caused to the plant, SETFA” value with Setaria faberi (SETFA) is recorded as 2 (2=21-40%). Also, in assay [4], the “percentage damage caused to the plant, IPOHE” value is listed as 2 (2=21-40%).

`N#Cc1cc(F)cc(-c2cc(C#N)cc(Br)c2O)c1` [Compound 1.032]: in assay [1], the “percentage damage caused to the plant, AMARE” value was 5 (5=81-100%). The “percentage damage caused to the plant, ABUTH” value in assay [3] is recorded as 4 (4=61-80%). Moreover, the “percentage damage caused to the plant, SETFA” value in the assay with Setaria faberi (SETFA) was 4 (4=61-80%). The “percentage damage caused to the plant, IPOHE” value in assay [4] is 3 (3=41-60%).

On to `N#Cc1cc(Br)c(O)c(-c2cc(F)cc(Cl)c2)c1` [Compound 1.034], for which the “percentage damage caused to the plant, AMARE” value in assay [1] is 4 (4=61-80%). For the same compound, the “percentage damage caused to the plant, ABUTH” value in assay [3] is 4 (4=61-80%).

On to `Cn1nc(-c2cc(C#N)cc(Br)c2O)cc1C(F)(F)F` [Compound 1.007, 3-bromo-4-hydroxy-5-[1-methyl-5-(trifluoromethyl)pyrazol-3-yl]benzonitrile], for which the “percentage damage caused to the plant, AMARE” value in assay [1] is recorded as 5 (5=81-100%). In addition, in assay [3], the “percentage damage caused to the plant, ABUTH” value was 2 (2=21-40%). The “percentage damage caused to the plant, SETFA” value with Setaria faberi (SETFA) was 1 (1=0-20%). Besides, the “percentage damage caused to the plant, IPOHE” value in assay [4] is on record as 3 (3=41-60%).
